Blank lines part the entries; values can stand above or below the compound they belong to.
Legend:
HDAC isoforms = details: cited from earlier work; for isoform selectivity: prior work
[1] = test system: HeLa cell lysates as the source of all HDAC proteins; experiment: Global HDAC inhibition with HeLa cell lysates; type: biochemical; details: mean and standard error of at least three independent trials
HDAC6 = target: T1, HDAC6 (Homo sapiens, UniProt Q9UBN7); experiment: ELISA-based HDAC activity assay, HDAC6; type: biochemical; details: from IC50 values (Tables 2 and S6)
T1 sequence (Q9UBN7 1-1215): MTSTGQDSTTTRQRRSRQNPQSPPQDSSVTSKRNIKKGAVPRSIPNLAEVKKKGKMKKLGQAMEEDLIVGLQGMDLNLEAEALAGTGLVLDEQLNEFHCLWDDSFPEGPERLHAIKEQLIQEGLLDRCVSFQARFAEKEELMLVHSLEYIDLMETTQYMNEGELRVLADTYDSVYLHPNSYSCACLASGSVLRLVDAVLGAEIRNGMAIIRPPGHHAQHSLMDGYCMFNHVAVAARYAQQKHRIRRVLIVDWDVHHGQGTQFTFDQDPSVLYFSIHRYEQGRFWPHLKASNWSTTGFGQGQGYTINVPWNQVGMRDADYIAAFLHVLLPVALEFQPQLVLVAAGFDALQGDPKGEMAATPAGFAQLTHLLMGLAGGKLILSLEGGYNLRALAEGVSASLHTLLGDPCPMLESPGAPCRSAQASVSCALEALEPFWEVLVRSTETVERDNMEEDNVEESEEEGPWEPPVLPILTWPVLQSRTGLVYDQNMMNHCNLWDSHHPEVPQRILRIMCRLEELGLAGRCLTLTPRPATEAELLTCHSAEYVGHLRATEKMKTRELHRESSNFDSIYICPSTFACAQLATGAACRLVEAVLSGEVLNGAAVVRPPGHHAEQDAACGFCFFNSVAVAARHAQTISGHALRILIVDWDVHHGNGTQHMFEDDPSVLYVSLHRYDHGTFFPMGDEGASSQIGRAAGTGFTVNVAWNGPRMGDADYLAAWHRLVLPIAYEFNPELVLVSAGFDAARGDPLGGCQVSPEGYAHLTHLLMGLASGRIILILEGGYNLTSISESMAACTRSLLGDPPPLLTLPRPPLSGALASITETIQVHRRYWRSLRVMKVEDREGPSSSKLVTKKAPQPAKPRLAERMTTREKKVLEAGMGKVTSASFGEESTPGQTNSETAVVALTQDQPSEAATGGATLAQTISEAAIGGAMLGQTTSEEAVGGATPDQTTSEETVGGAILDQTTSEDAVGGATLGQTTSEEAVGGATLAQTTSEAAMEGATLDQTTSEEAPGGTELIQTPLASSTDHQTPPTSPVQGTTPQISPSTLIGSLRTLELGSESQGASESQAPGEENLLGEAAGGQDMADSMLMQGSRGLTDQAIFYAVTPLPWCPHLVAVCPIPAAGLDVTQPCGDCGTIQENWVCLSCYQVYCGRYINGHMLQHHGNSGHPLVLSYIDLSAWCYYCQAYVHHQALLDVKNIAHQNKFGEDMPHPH

[2] = test system: HDAC6 (substrate acetyl-α-tubulin, AcTub); experiment: In cellulo selectivity, western blot of acetyl-α-tubulin in U937 cells; type: cell-based; details: SAHA 5 µM, 1e 10–40 µM, compared to DMSO control
[3] = test system: Class I HDAC (HDAC1, 2, and 3) (substrate acetyl-histone 3, AcH3); experiment: In cellulo selectivity, western blot of acetyl-histone H3 in U937 cells; type: cell-based; details: SAHA 5 µM, 1e 10–40 µM, compared to DMSO control

Structure (SMILES): CCCCCCC(CCCCCC(=O)Nc1ccccc1)C(=O)NO (stereo not shown) [C2-hexyl SAHA]
- selectivity for HDAC6 and 8 over HDAC1, 2, and 3 (HDAC isoforms; previously reported): 49- to 300 fold
- isoform selectivity (HDAC isoforms): dual HDAC6/8 selectivity
- IC50 (HDAC isoforms; read-out: IC50 values against HDAC6 and 8, previously reported): 0.6 to 2 µM

Structure (SMILES): CCC(CCCCC(=O)Nc1ccccc1)CC(=O)NO (stereo not shown) [C3-ethyl SAHA]
- isoform selectivity (HDAC isoforms): HDAC6 selectivity

Structure (SMILES): CCCCC(CCCCC(=O)NO)CC(=O)Nc1ccccc1 (stereo not shown) [C6-butyl SAHA]
- isoform selectivity (HDAC isoforms): inhibited HDAC1 and 6 over HDAC3

- IC50 [1]: 0.1 ± 0.01 µM
Structure (SMILES): CC(CCCC(=O)NO)CCC(=O)Nc1ccccc1 (stereo not shown) [Compound 1a, C5-methyl SAHA]

- selectivity for HDAC6 and HDAC8 over HDAC1, 2, and 3 (HDAC6): 3- to 5 fold
Structure (SMILES): CCCCC(CCCC(=O)NO)CCC(=O)Nc1ccccc1 (stereo not shown) [Compound 1b, C5-n-butyl SAHA]

- selectivity for HDAC6 and HDAC8 over HDAC1, 2, and 3 (HDAC6): 5- to 7 fold
Structure (SMILES): CCCCCCC(CCCC(=O)NO)CCC(=O)Nc1ccccc1 (stereo not shown) [Compound 1c, C5-n-hexyl SAHA]

Structure (SMILES): O=C(CCCC(CCC(=O)Nc1ccccc1)Cc1ccccc1)NO (stereo not shown) [Compound 1e, C5-benzyl SAHA]
- levels of acetyl-α-tubulin (AcTub) [2]: dose dependent selective increase
- levels of acetyl-histone H3 (AcH3) [3]: increased levels

— paper PMC5747257 (Bioorganic & medicinal chemistry letters, 2017)
